Assay results taken from PubChem BioAssay (NCI).
Values joined by “and” are separate entries in the source; they are usually repeats but may differ in a detail not shown here. Equal entries are not always repeated.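 Results reflect a 48-hour exposure of cells in 96-well plates to compound at five concentrations. GI50 marks 50% less growth. At the TGI there is no net growth.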

How the values were obtained:
Test in all cases: growth of human tumour cells (NCI), 48 h
[1] = test system: OVCAR-4 ovarian
[2] = test system: U251 CNS
[3] = test system: RPMI-8226 leukemia
[4] = test system: LOX IMVI melanoma
[5] = test system: EKVX NSCLC
[6] = test system: K-562 leukemia
[7] = test system: SR leukemia
[8] = test system: SNB-75 CNS
[9] = test system: CAKI-1 renal
[10] = test system: NCI-H23 lung

Structure (SMILES): CCOC(=O)C12CCCC1(O)N(NC(=O)c1cccc(Cl)c1)C(C)=C2C(=O)OC (stereo not given)
- TGI [1]: > 100 µM
- TGI [2]: > 100 µM
- TGI [3]: > 100 µM
- TGI [4]: > 100 µM
- TGI [5]: > 100 µM
- TGI [6]: > 100 µM
- TGI [7]: > 100 µM
- TGI [8]: > 100 µM
- TGI [9]: > 100 µM

Structure (SMILES): COc1ccc(-c2cc(-c3ccc(Nc4nc(Nc5ccc(Cl)cc5)nc(Nc5ccc(Cl)cc5)n4)cc3)no2)cc1
- GI50 [1]: 14.7 µM
- TGI [1]: > 100 µM
- GI50 [2]: 11.2 µM
- TGI [2]: > 100 µM
- GI50 [10]: 11.7 µM
- TGI [10]: 28.1 µM
- GI50 [3]: 13.1 µM
- TGI [3]: 48.2 µM
- GI50 [4]: 12.2 µM
- TGI [4]: 34.9 µM
- GI50 [5]: 10.2 µM
- TGI [5]: 85.6 µM
- GI50 [6]: 2.96 µM
- TGI [6]: 18.5 µM
- GI50 [7]: 2.06 µM
- TGI [7]: 6.5 µM
- GI50 [8]: 35.2 µM
- TGI [8]: > 100 µM
- GI50 [9]: 15.5 µM
- TGI [9]: 62.3 µM

Structure (SMILES): NC1=NC(=O)N2CC12 (stereo not given)
- GI50 [1]: 198 µM
- TGI [1]: > 100 µM and 779 µM
- GI50 [2]: 154 µM
- TGI [2]: > 100 µM and 620 µM
- GI50 [10]: 737 µM
- TGI [10]: > 100 µM and 2640 µM
- TGI [3]: > 100 µM and 22 µM and 218 µM
- GI50 [4]: 38.2 µM and 61.2 µM
- TGI [4]: > 100 µM and 134 µM
- GI50 [5]: 123 µM
- TGI [5]: > 100 µM and 603 µM
- GI50 [6]: 38.9 µM
- TGI [6]: > 100 µM
- GI50 [7]: 10.8 µM and 14.6 µM
- TGI [7]: > 100 µM and 34.8 µM and 73.9 µM
- GI50 [8]: 240 µM
- TGI [8]: > 100 µM and 822 µM
- GI50 [9]: 35.1 µM
- TGI [9]: > 100 µM and 118 µM

Structure (SMILES): OCCN1CCN(CCO)Cc2ccccc2OCCOc2ccccc2C1
- TGI [1]: > 100 µM
- TGI [2]: > 100 µM
- TGI [10]: > 100 µM
- TGI [3]: > 100 µM
- TGI [4]: > 100 µM
- TGI [5]: > 100 µM
- TGI [6]: > 100 µM
- TGI [7]: > 100 µM
- TGI [8]: > 100 µM
- TGI [9]: > 100 µM

Structure (SMILES): N=c1ccn2c(n1)OC1C(OP(=O)(O)O)C(CO)OC12 (stereo not given)
- TGI [1]: > 100 µM
- TGI [2]: > 100 µM
- TGI [10]: > 100 µM
- TGI [3]: > 100 µM
- TGI [4]: > 100 µM
- TGI [5]: > 100 µM
- TGI [6]: > 100 µM
- TGI [7]: > 51.1 µM
- TGI [8]: > 100 µM
- TGI [9]: > 100 µM

Structure (SMILES): O=C(O)C(=O)Cc1ccc2c(c1)OCO2
- TGI [1]: > 100 µM
- TGI [2]: > 100 µM
- TGI [10]: > 100 µM
- TGI [3]: > 100 µM
- TGI [4]: > 100 µM
- TGI [5]: > 100 µM
- TGI [6]: > 100 µM
- TGI [7]: > 100 µM
- TGI [8]: > 100 µM
- TGI [9]: > 100 µM

Structure (SMILES): Cc1cc(Cl)ccc1Nc1sc(C(=O)c2cc3cc(Cl)ccc3o2)c(N)c1C#N
- TGI [1]: 25.1 µM
- TGI [2]: 16.2 µM
- TGI [10]: 35.5 µM
- TGI [3]: > 62.4 µM
- TGI [4]: > 100 µM
- TGI [5]: > 100 µM
- TGI [6]: > 100 µM
- TGI [7]: > 100 µM
- TGI [8]: 20.8 µM
- TGI [9]: > 100 µM

Structure (SMILES): O=C1C=C(Nc2ccccc2)c2ncccc2C1=O
- GI50 [1]: 0.321 µM
- TGI [1]: 1.11 µM
- GI50 [2]: 0.348 µM
- TGI [2]: 1.2 µM
- GI50 [10]: 0.307 µM
- TGI [10]: 1.31 µM
- GI50 [3]: 0.305 µM
- TGI [3]: 1.3 µM
- GI50 [4]: 0.208 µM
- TGI [4]: 0.514 µM
- GI50 [5]: 1.37 µM
- TGI [5]: 2.81 µM
- GI50 [7]: 0.691 µM
- TGI [7]: > 100 µM
- GI50 [8]: 1.58 µM
- TGI [8]: 2.94 µM
- GI50 [9]: 1.39 µM
- TGI [9]: 2.7 µM

Structure (SMILES): CC(C)C1C(=O)N2CCCC2C2(O)OC(NC(=O)C3C=C4c5cccc6[nH]cc(c56)CC4N(C)C3)(C(C)C)C(=O)N12 (stereo not given)
- TGI [1]: 47.9 µM
- TGI [2]: 70.3 µM
- TGI [10]: > 100 µM
- TGI [3]: 47.9 µM
- TGI [4]: 34.8 µM
- TGI [5]: 73.1 µM
- TGI [7]: 68.3 µM
- TGI [8]: 76.7 µM
- TGI [9]: 37.9 µM
